# Laboratory results published in patent US10105378B2, “Enrichment methods for preparing tannic acid compositions” (SyneuRx International (Taiwan) Corp., priority 2016, dated 2018).
# What was measured:
# [1] = molecular target: D-amino acid oxidase (DAAO) (UniProt P14920)
# Description: The activity of DAAO was determined in vitro by measuring the inhibition of the catabolism of known substrate, D-proline. The cofactor FAD (40 ? M) was added to the DAAO stock solution first. For the assay, potential inhibitors of tannic acid(s) were mixed with reaction mixture containing phosphate buffered saline (137 mM NaCl, 3 mM KCl, 10 mM Na2HPO4, 2 mM NaH2PO4, pH 7.4), horseradish peroxidase (5 U/ml), o-phenylendiamine (OPD, 0.03%), and 0.6 μg human-(or porcine-) DAAO, and incubated for about 5 min. After the pre-incubation period, 40 mM D-proline were added as substrate and the reaction continued for 10 min. OPD was oxidized to form 2,3-diaminophenazine (DAP) by horseradish peroxidase. The absorbance of DAP was measured at 453 nm by a spectrophotometry. Assay was done in serial dilutions of the inhibitors to generate IC50 and analyzed by Prism (Graphpad Software). In the analysis, the spectrophotometry readings were fit to a standard equation to determine the concentration of 50% inhibition (IC50). All enzymatic assays were conducted at room temperature in 96-well plate format.
# The DAAO inhibitory activities of subgroups of tannic acids (having a particular number of galloyl moieties) were determined as follows.
# MK-801 treated mice [2] = experiment: Open field locomotion in MK-801 treated mice (Examples 3, 4); format: in vivo, C57BL/6J male mice; conditions: MK-801 0.1 mg/kg i.p. alone
# Description: (§1) Each mouse in Groups 2-6 received an acute administration of MK-801 (Sigma-Aldrich, USA) dissolved in normal saline, 0.1 mg/kg, i.p.) 20 minutes prior to the behavioral tests. Each mouse in Groups 3-6 received an acute administration of tannic acids (Sigma-Aldrich, USA; dissolved in PBS, 10, 15, 20 or 30 mg/kg, i.p.) 20 minutes prior to the MK-801 administration.
# All mice in this study were tested with open field task and prepulse inhibition task with at least 1-week interval between two tasks. An additional cohort of mice was used to test the effect of different sources of tannic acid on prepulse inhibition.
# (§2) Each mouse in Groups 2-5 received an acute administration of MK-801 (Sigma-Aldrich, USA) dissolved in normal saline, 0.1 mg/kg for open field and Barnes maze tasks, and 0.2 mg/kg for prepulse inhibition and sucrose preference tasks by i.p. injection) 20 minutes prior to the behavioral tests. Each mouse in Groups 3-6 received an acute oral administration of tannic acids (Merck Millipore, Germany; dissolved in PBS, 10, 30, or 100 mg/kg, p.o.) 20 minutes prior to the MK-801 administration.
# In this test, tannic acids were administered orally 20 minutes before the MK-801 (0.1 mg/kg) injection.
# MK-801 treated mice [3] = experiment: Prepulse inhibition in MK-801 treated mice (Examples 3, 4); format: in vivo, C57BL/6J male mice; conditions: MK-801 0.2 mg/kg i.p. alone
# Description: as §1
# Prepulse inhibition was used as an index of sensorimotor gating function using SR-LAB startle apparatus (San Diego Instruments, San Diego, Calif., USA). Under 72 dB background noise, each session was composed of 5 minutes accumulation period followed by 64 trials in four blocks. The pulse alone (PA) trial was a 40 ms, 120 dB white noise burst. In the prepulse (pp)+pulse trials, a 20 ms white noise prepulse stimuli of 78 dB (pp6), 82 dB (pp10), and 90 dB (pp18) were presented 100 ms before a 40 ms 120 dB pulse. The non-stimulus (NS) trials presented the background noise only. The initial and the last blocks were composed of six PA trials, respectively. Two middle blocks consisted of PA, pp+pulse, and NS trials. […] The percentage of prepulse inhibition was evaluated by the following formula: % PPI=100×[(PA score)−(pp−P score)]/(PA score), where the PA score was the average of the PA value in the middle blocks. […]
# MK-801 treated mice [4] = experiment: Sucrose preference (anhedonia) in MK-801 treated mice; format: in vivo, C57BL/6J male mice; conditions: MK-801 0.2 mg/kg i.p. alone
# Description: as §2
# Sucrose preference test has been commonly examined in mouse models of several mental illnesses, including, but not limited to, depression, major depression disorder, anhedonia, negative symptoms of schizophrenia, chronic mild and unpredictable stress (see Anderson et al., 2006; Carvalho et al., 2013; Briones et al., 2011; Der-Avakian and Markou, 2012; Tye et al., 2013; Edwards and Koob, 2012; Brigman et al., 2010; Koo and Duman, 2007; Nestler and Hyman, 2010; Overstreet, 2012; Papp et al., 1991; Santiago et al., 2010; Skalisz et al., 2002; Szczypka et al., 2001; Taylor et al., 2010; Vardigan et al., 2010; Willner et al., 1987; You et al., 2011).
# MK-801 treated mice [5] = experiment: Open field locomotion in MK-801 treated mice (Example 9); format: in vivo, C57BL/6J male mice; conditions: MK-801 0.2 mg/kg i.p. alone
# Description: Each mouse in Groups 2-5 received an acute administration of 0.2 mg/kg MK-801 (Sigma-Aldrich, USA) dissolved in normal saline by i.p. injection 20 minutes prior to the locomotion activity test. Each mouse in Groups 3-6 received an acute oral administration of 50 mg/kg tannic acids dissolved in ddH2O by p.o. 20 minutes prior to the MK-801 administration. Tannic acid purchased from Merch Millipore (Merck TA) and from Wufeng Chicheng Biotech (CCBiotech TA), and tannic acid from Enrichment method 10 (Enrichment #10) at 50 mg/kg were used in this study.
# The open field task is a common measurement of novelty induced exploratory behavior and general activity in both mice and rats. In this study, the mice were placed in a PLEXIGLAS® cage (37.5 cm×21.5 cm×18 cm) under 50-65 lux light intensity. Their spontaneous locomotor activities were measured for 30 minutes using the SMART video tracking system (Panlab, Harvard Apparatus). The travel distance of each mouse was measured as an index of locomotion activity.
# MK-801 treated mice [6] = experiment: Prepulse inhibition in MK-801 treated mice (Example 9); format: in vivo, C57BL/6J male mice; conditions: MK-801 0.3 mg/kg i.p. alone
# Description: Each mouse in Groups 2-4 received an acute administration of 0.3 mg/kg MK-801 (Sigma-Aldrich, USA) dissolved in normal saline by i.p. injection 20 minutes prior to the prepulse inhibitin test. Each mouse in Groups 3-4 received an acute oral administration of 50 or 200 mg/kg Enrichment #10 tannic acids dissolved in ddH2O by p.o. 20 minutes prior to the MK-801 administration.
# Prepulse inhibition was used as an index of sensorimotor gating function using SR-LAB startle apparatus (San Diego Instruments, San Diego, Calif., USA). Under 65 dB background noise, each session was composed of 5 minutes accumulation period followed by 64 trials in four blocks. The pulse alone (PA) trial was a 40 ms, 120 dB white noise burst. In the prepulse (pp)+pulse trials, a 20 ms white noise prepulse stimuli of 71 dB (pp6), 75 dB (pp10), and 83 dB (pp18) were presented 100 ms before a 40 ms 120 dB pulse. The non-stimulus (NS) trials presented the background noise only. The initial and the last blocks were composed of six PA trials, respectively. Two middle blocks consisted of PA, pp+pulse, and NS trials. […] The percentage of prepulse inhibition was evaluated by the following formula: % PPI=100×[(PA score)−(pp−P score)]/(PA score), where the PA score was the average of the PA value in the middle blocks
SMILES,"IC50 ([1]; read-out: IC50 (μM), potency of individual tannic acids, Table 4)",Relative DAAO activity (%) ([1]; samples at 300 nM),locomotion activity vs control group (MK-801 treated mice [2]; Example 3),locomotion (MK-801 treated mice [2]; Example 4),prepulse inhibition vs control group (MK-801 treated mice [3]),preference toward the sucrose solution (2%) (MK-801 treated mice [4]),locomotion activity vs control group (MK-801 treated mice [5]),prepulse inhibition vs control group (MK-801 treated mice [6])
O=C(OC[C@H]1OC(OC(=O)c2cc(O)c(O)c(OC(=O)c3cc(O)c(O)c(O)c3)c2)[C@H](OC(=O)c2cc(O)c(O)c(OC(=O)c3cc(O)c(O)c(O)c3)c2)[C@@H](OC(=O)c2cc(O)c(O)c(OC(=O)c3cc(O)c(O)c(O)c3)c2)[C@@H]1OC(=O)c1cc(O)c(O)c(OC(=O)c2cc(O)c(O)c(O)c2)c1)c1cc(O)c(O)c(OC(=O)c2cc(O)c(O)c(O)c2)c1 (some centres unmarked) [10G],0.215 µM,19.25%,–,–,–,–,–,–
C[C@]12N[C@H](Cc3ccccc31)c1ccccc12 [MK-801],–,–,hyper-locomotion activity,induced hyper-locomotion,induced robust prepulse inhibition deficits,did not show the preference toward the sucrose solution,hyper-locomotion activity,induced robust prepulse inhibition deficits in all prepulse intensities
